According to patent US10246451B2, “Propionic acid derivatives and methods of use thereof” (Aviara Pharmaceuticals, Inc., priority 2017, dated 2019):

Experiments:
[1] = target: α4β1 integrin (Homo sapiens, UniProt P05556+P13612); test: a4b1 IC50 (inhibition of α4β1 integrin; no method described); type: binding
[2] = target: T1, α4β7 integrin (Homo sapiens, UniProt P13612+P26010); test: a4b7 IC50 (inhibition of α4β7 integrin; no method described); type: binding
T1 sequence (P13612 34-1032): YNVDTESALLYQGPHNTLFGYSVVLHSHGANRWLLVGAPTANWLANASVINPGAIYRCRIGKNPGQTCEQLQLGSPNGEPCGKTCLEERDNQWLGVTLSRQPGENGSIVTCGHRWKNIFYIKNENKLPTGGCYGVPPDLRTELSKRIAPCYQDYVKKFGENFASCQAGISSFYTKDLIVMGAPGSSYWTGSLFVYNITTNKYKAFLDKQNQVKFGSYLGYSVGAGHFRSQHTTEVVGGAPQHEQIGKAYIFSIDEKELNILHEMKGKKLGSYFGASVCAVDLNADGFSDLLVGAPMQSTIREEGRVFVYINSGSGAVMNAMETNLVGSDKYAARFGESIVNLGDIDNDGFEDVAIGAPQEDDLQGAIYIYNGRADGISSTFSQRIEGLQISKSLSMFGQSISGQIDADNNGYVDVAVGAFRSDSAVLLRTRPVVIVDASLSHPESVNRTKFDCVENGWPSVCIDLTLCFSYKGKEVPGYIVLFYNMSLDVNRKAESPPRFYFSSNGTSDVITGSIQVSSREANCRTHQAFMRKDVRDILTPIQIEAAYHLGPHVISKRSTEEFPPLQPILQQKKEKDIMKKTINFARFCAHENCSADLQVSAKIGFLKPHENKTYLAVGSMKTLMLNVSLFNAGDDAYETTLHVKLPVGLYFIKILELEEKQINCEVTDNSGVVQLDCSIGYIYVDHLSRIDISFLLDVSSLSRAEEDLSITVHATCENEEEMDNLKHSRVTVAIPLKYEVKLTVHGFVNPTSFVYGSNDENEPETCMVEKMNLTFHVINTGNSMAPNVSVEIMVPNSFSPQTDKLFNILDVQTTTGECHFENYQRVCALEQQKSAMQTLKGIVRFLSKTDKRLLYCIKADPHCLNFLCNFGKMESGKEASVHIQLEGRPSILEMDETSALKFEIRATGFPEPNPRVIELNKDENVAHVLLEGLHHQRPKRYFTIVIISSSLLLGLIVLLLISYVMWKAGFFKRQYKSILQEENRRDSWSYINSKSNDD
T1 sequence (P26010 20-798): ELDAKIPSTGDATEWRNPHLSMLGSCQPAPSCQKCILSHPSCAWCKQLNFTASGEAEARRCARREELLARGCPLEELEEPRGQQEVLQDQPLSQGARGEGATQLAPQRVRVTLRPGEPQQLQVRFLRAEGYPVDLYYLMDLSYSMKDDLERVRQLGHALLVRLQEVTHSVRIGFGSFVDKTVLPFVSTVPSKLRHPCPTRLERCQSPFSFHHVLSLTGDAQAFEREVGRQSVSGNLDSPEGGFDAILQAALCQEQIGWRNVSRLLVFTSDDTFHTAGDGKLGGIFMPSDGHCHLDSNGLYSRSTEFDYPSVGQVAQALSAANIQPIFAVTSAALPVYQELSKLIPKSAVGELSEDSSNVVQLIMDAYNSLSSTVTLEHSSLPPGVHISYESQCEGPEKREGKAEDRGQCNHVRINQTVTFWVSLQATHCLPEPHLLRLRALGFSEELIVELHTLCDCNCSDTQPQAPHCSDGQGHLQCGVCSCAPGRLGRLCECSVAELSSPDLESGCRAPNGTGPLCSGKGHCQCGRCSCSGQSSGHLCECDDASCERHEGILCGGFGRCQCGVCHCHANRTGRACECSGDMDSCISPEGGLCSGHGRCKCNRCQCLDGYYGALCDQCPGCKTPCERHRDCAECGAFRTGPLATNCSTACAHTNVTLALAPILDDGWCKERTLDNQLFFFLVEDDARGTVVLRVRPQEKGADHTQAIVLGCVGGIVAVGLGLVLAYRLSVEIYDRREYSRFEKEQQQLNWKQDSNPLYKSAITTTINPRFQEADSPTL

Chain of α4β1 integrin (P05556 21-798, one chain of several): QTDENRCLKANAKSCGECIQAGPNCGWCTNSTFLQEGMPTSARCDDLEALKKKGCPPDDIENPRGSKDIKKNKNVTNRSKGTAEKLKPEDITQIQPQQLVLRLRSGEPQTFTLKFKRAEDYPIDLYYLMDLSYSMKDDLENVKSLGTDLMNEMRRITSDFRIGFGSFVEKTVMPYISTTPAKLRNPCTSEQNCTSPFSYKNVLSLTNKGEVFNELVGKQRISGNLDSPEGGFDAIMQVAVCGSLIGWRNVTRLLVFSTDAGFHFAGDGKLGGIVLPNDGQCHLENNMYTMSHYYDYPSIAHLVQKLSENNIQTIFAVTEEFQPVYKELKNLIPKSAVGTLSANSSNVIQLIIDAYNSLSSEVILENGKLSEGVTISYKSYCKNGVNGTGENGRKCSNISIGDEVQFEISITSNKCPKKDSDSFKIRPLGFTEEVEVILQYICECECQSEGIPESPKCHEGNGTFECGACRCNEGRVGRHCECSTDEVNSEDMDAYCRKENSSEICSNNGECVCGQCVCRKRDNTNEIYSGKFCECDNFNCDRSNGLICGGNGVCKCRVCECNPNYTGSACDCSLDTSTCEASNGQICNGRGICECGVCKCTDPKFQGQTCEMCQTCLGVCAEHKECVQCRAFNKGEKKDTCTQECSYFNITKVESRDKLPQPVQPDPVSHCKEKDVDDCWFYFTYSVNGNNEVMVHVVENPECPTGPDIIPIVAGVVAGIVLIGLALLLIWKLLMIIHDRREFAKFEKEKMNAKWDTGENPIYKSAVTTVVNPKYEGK

| SMILES | IC50 [1] | IC50 [2] |
| --- | --- | --- |
| Cc1ccc(Cc2cccc([C@H](CC(=O)O)NC(=O)Nc3c(O)c(C)cn(C)c3=O)c2)cc1 [Compound 1-30, sodium (S)-3-(3-(1,5-dimethyl-4-oxido-2-oxo-1,2-dihydropyridin-3-yl)ureido)-3-(3-(4-methylbenzyl)phenyl)propanoate] | < 0.2 µM | – |
| Cc1ccccc1Cc1cccc([C@H](CC(=O)O)NC(=O)Nc2c(O)c(C)cn(C)c2=O)c1 [Compound 1-28, sodium (S)-3-(3-(1,5-dimethyl-4-oxido-2-oxo-1,2-dihydropyridin-3-yl)ureido)-3-(3-(2-methylbenzyl)phenyl)propanoate] | < 0.02 µM | – |
| Cc1cccc(Cc2cccc([C@H](CC(=O)O)NC(=O)Nc3c(O)c(C)cn(C)c3=O)c2)c1 [Compound 1-29, sodium (S)-3-(3-(1,5-dimethyl-4-oxido-2-oxo-1,2-dihydropyridin-3-yl)ureido)-3-(3-(3-methylbenzyl)phenyl)propanoate] | < 0.2 µM | – |
| Cc1cn(C)c(=O)c(NC(=O)N[C@@H](CC(=O)O)c2cccc(Oc3ccccc3)c2)c1O [Compound 1-22, sodium (S)-3-(3-(1,5-dimethyl-4-oxido-2-oxo-1,2-dihydropyridin-3-yl)ureido)-3-(3-phenoxyphenyl)propanoate] | < 0.2 µM | – |

Further lines, results first:

| IC50 [1] | IC50 [2] | SMILES |
| --- | --- | --- |
| < 0.02 µM | < 0.2 µM | Cc1ccccc1C(F)(F)c1cccc([C@H](CC(=O)O)NC(=O)Nc2c(O)ccn(C)c2=O)c1 [Compound 3-65, sodium (S)-3-(3-(difluoro(o-tolyl)methyl)phenyl)-3-(3-(1-methyl-4-oxido-2-oxo-1,2-dihydropyridin-3-yl)ureido)propanoate] |
| < 0.2 µM | < 0.02 µM | Cn1ccc(O)c(NC(=O)N[C@@H](CC(=O)O)c2cccc(Oc3ccccc3)c2)c1=O [Compound 3-71, sodium (S)-3-(3-(1-methyl-4-oxido-2-oxo-1,2-dihydropyridin-3-yl)ureido)-3-(3-phenoxyphenyl)propanoate] |
| < 0.02 µM | – | Cc1cccc(C)c1Oc1cccc([C@H](CC(=O)O)NC(=O)Nc2c(O)ccn(C)c2=O)c1 [Compound 3-87, sodium(S)-3-(3-(2,6-dimethylphenoxy)phenyl)-3-(3-(1-methyl-4-oxido-2-oxo-1,2-dihydropyridin-3-yl)ureido)propanoate] |
| < 0.02 µM | – | Cc1ccc(F)cc1Cc1cccc([C@H](CC(=O)O)NC(=O)Nc2c(O)ccn(C)c2=O)c1 [Compound 3-70, sodium (S)-3-(3-(5-fluoro-2-methylbenzyl)phenyl)-3-(3-(1-methyl-4-oxido-2-oxo-1,2-dihydropyridin-3-yl)ureido)propanoate] |
| < 0.02 µM | – | Cn1ccc(O)c(NC(=O)N[C@@H](CC(=O)O)c2cccc(Cc3cccc(C(F)(F)F)c3)c2)c1=O [Compound 3-89, sodium (S)-3-(3-(1-methyl-4-oxido-2-oxo-1,2-dihydropyridin-3-yl)ureido)-3-(3-(3-(trifluoromethyl)benzyl)phenyl)propanoate] |
| < 0.02 µM | – | Cn1ccc(O)c(NC(=O)N[C@@H](CC(=O)O)c2cccc(Oc3ccc(F)cc3F)c2)c1=O [Compound 3-86, sodium(S)-3-(3-(2,4-difluorophenoxy)phenyl)-3-(3-(1-methyl-4-oxido-2-oxo-1,2-dihydropyridin-3-yl)ureido)propanoate] |
| < 0.02 µM | – | CCc1ccccc1Cc1cccc([C@H](CC(=O)O)NC(=O)Nc2c(O)ccn(C)c2=O)c1 [Compound 3-80, sodium (S)-3-(3-(2-ethylbenzyl)phenyl)-3-(3-(1-methyl-4-oxido-2-oxo-1,2-dihydro-pyridin-3-yl)ureido)propanoate] |
| < 0.02 µM | – | Cn1ccc(O)c(NC(=O)N[C@@H](CC(=O)O)c2cccc(Oc3ccccc3Cl)c2)c1=O [Compound 3-69, sodium (S)-3-(3-(2-chlorophenoxy)phenyl)-3-(3-(1-methyl-4-oxido-2-oxo-1,2-dihydropyridin-3-yl)ureido)propanoate] |
| < 0.2 µM | – | Cc1ccc(Oc2ccc([C@H](CC(=O)O)NC(=O)Nc3c(O)ccn(C)c3=O)cc2)cc1 [Compound 3-75, sodium (S)-3-(3-(1-methyl-4-oxido-2-oxo-1,2-dihydropyridin-3-yl)ureido)-3-(4-(p-tolyloxy)phenyl)propanoate] |
